Source: US20080058352A1, “Fungicidal Mixtures” (priority 2004, published 2008)

Tested on: Pyrenophora teres
Experiment: activity against net blotch of barley caused by Pyrenophora teres, 5 day protective application
Assay type: in vivo, Pyrenophora [syn. Drechslera] teres on barley seedlings
Details: individual active compound, untreated control 90% infection
Protocol: The active compounds, separately or jointly, were prepared as a stock solution comprising 25 mg of active compound which was made up to 10 ml using a mixture of acetone and/or DMSO and the emulsifier Uniperol® EL (wetting agent having an emulsifying and dispersing action based on ethoxylated alkylphenols) in a ratio by volume of solvent/emulsifier of 99:1. The mixture was then made up to 100 ml with water. This stock solution was diluted with the solvent/emulsifier/water mixture described to give the concentration of active compound stated below. Alternatively, the active compounds were employed as a commercial finished formulation and diluted with water to the stated concentration of active compound.
Use example—activity against net blotch of barley caused by Pyrenophora teres, 5 day protective application.
Leaves of potted barley seedlings were sprayed to runoff point with an aqueous suspension having the concentration of active compound stated below. 5 days after the application, the test plants were inoculated with an aqueous spore suspension of Pyrenophora [syn. Drechslera] teres, the net blotch pathogen. The test plants were then placed in a greenhouse at temperatures between 20 and 24° C. and 95 to 100% relative atmospheric humidity. After 6 days, the extent of the development of the disease was determined visually in % infection of the total leaf area.
The visually determined percentages of infected leaf areas were converted into efficacies in % of the untreated control:
The efficacy (E) is calculated as follows using Abbot's formula:
E=(1−α/β)·100 • α corresponds to the fungal infection of the treated plants in % and • β corresponds to the fungal infection of the untreated (control) plants in %
An efficacy of 0 means that the infection level of the treated plants corresponds to that of the untreated control plants; an efficacy of 100 means that the treated plants were not infected.
The expected efficacies of mixtures of active compounds were determined using Colby's formula (Colby, S. R. “Calculating synergistic and antagonistic responses of herbicide combinations”, Weeds, 15, 20-22, 1967) and compared with the observed efficacies.
E=x+y−x·y/100 • E expected efficacy, expressed in % of the untreated control, when the using the mixture of the active compounds A and B at the concentrations a and b • x efficacy, expressed in % of the untreated control, when using the active compound A at the concentration a • y efficacy, expressed in % of the untreated control, when using the active compound B at the concentration b

CC1CCN(c2c(-c3c(F)cc(F)cc3F)c(Cl)nc3ncnn23)CC1 [I, 5-chloro-7-(4-methylpiperidin-1-yl)-6-(2,4,6-trifluorophenyl)[1,2,4]triazolo[1,5-a]pyrimidine]
Efficacy in % of the untreated control (0.25 ppm in the spray liquor): 0% | Efficacy in % of the untreated control (1 ppm in the spray liquor): 0% | Efficacy in % of the untreated control (4 ppm in the spray liquor): 33%

CC(C)CC(C)c1sccc1NC(=O)c1cn(C)nc1C(F)(F)F (stereo not drawn) [IIA.11, penthiopyrad]
Efficacy in % of the untreated control (0.25 ppm in the spray liquor): 0% | Efficacy in % of the untreated control (1 ppm in the spray liquor): 33% | Efficacy in % of the untreated control (4 ppm in the spray liquor): 56%
